Experimental data from ChEMBL document CHEMBL1201862, “PubChem BioAssay data set” (2004).
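Dose response: 5 concentrations. Exposure: 48 h. Format: 96-well plates. Endpoint: linear interpolation; highest concentration if not reached. GI50: concentration for 50% inhibition of growth.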 The source made the active and inactive calls. Rule as the data show it: active = GI50 up to about 1.1 µM and inactive = higher.

Columns and labels:
Test in all cases: NCI tumour cell line growth inhibition, 48 h
[1] = system: A549
[2] = system: KM12
[3] = system: HL-60
[4] = system: NCI-H460
[5] = system: M14
[6] = system: UACC-62
[7] = system: SNB-75
[8] = system: SK-OV-3
[9] = system: PC-3
[10] = system: MDA-MB-231
[11] = system: NCI/ADR-RES
[12] = system: MDA-MB-435
[13] = system: MCF7
[14] = system: CCRF-CEM
[15] = system: RXF 393
[16] = system: HCT-15
[17] = system: SNB-19
[18] = system: ACHN
[19] = system: T47D

Row | Structure (SMILES) | GI50 [1] | GI50 [2] | GI50 [3] | GI50 [4] | GI50 [5] | GI50 [6] | GI50 [7] | GI50 [8] | GI50 [9] | GI50 [10] | GI50 [11] | GI50 [12] | GI50 [13] | GI50 [14] | GI50 [15] | GI50 [16] [µM] | GI50 [17] | GI50 [18] | GI50 [19]
1 | COc1cc(C2c3cc4c(cc3OC(Nc3ccc(C(=O)O)cc3)C2C)OCO4)cc(OC)c1OC (stereo not given) | 0.373 µM (active) | 0.241 µM (active) | 0.186 µM (active) | 0.326 µM (active) | 0.301 µM (active) | 0.403 µM (active) | 0.295 µM (active) | 0.362 µM (active) | 0.253 µM (active) | 0.189 µM (active) | 0.29 µM (active) | 0.0317 µM (active) | 0.232 µM (active) | 0.282 µM (active) | 0.115 µM (active) | 0.294 | 0.472 µM (active) | 1.38 µM (inactive) | 0.458 µM (active)
2 | CC(C)CCCC(C)[C@H]1CC[C@H]2N/C(=N/Cc3ccccc3)CCC[C@]12C (stereo not given in full) | 1.83 µM (inactive) | 1.88 µM (inactive) | 2.11 µM (inactive) | 1.66 µM (inactive) | 2.32 µM (inactive) | 1.83 µM (inactive) | 1.83 µM (inactive) | 5.31 µM (inactive) | 1.81 µM (inactive) | 2.05 µM (inactive) | 1.65 µM (inactive) | 1.64 µM (inactive) | 1.71 µM (inactive) | 2.13 µM (inactive) | 1.53 µM (inactive) | 1.67 | 2.94 µM (inactive) |  | 2.83 µM (inactive)
3 | COc1ccc(Oc2nc3c(N)cc(C(F)(F)F)cc3nc2-c2ccccc2)cc1 |  | 12.8 µM (inactive) | 59.6 µM (inactive) | 21.8 µM (inactive) | 13.3 µM (inactive) | 31.4 µM (inactive) | 17.7 µM (inactive) | 13.3 µM (inactive) | 19.8 µM (inactive) | 24.8 µM (inactive) | 27.2 µM (inactive) | 46.3 µM (inactive) | 11.6 µM (inactive) | 38.4 µM (inactive) | 11.6 µM (inactive) | 31.6 | 36.1 µM (inactive) | 28.2 µM (inactive) | 8.04 µM (inactive)
4 | Cc1cccc2c(N)c3cccc(C(=O)NCC[N+](C)(C)Cc4ccc([N+](=O)[O-])n4C)c3nc12 | 1.92 µM (inactive) | 16.7 µM (inactive) | 4.6 µM (inactive) | 8.97 µM (inactive) | 23.3 µM (inactive) | 44.3 µM (inactive) | 6.32 µM (inactive) | 25.1 µM (inactive) | 24 µM (inactive) | 38.6 µM (inactive) | 55.3 µM (inactive) | 52 µM (inactive) | 8.65 µM (inactive) | 3.7 µM (inactive) | 22.4 µM (inactive) | 27.9 | 15.6 µM (inactive) | 10.1 µM (inactive) | 4.71 µM (inactive)
5 | COc1ccc(N2C(=O)CSC2c2cc3cc(Br)ccc3nc2Cl)cc1 (stereo not given) | 48.6 µM (inactive) | 20.9 µM (inactive) | > 50 µM (inactive) | 22.1 µM (inactive) | 38.5 µM (inactive) | 10.3 µM (inactive) | > 50 µM (inactive) | > 50 µM (inactive) | > 50 µM (inactive) | > 50 µM (inactive) | 44.1 µM (inactive) | 23.7 µM (inactive) | 31.7 µM (inactive) | 31.6 µM (inactive) | > 50 µM (inactive) | 31.5 | > 50 µM (inactive) | 19 µM (inactive) | 38.3 µM (inactive)
6 | CCCCCCCCCCCCCCCC(=O)OC1C(O)C(O)C(O)C(O)C12CO2 (stereo not given) | > 100 µM (inactive) | 36.2 µM (inactive) | 15.2 µM (inactive) | > 100 µM (inactive) | > 100 µM (inactive) | 28.4 µM (inactive) | 20.7 µM (inactive) | 51.4 µM (inactive) | 20.9 µM (inactive) | 34.4 µM (inactive) | 46 µM (inactive) | 48.5 µM (inactive) | 16.2 µM (inactive) | 7.94 µM (inactive) | 69.2 µM (inactive) | 24.5 | > 100 µM (inactive) | 24.4 µM (inactive) | > 100 µM (inactive)
7 | NS(=O)(=O)c1ccc(NC(=S)NC(=O)Nc2ccc(Cl)c(Cl)c2)cc1 | 14.4 µM (inactive) | 9.29 µM (inactive) | 10.5 µM (inactive) | 13 µM (inactive) | 7.33 µM (inactive) | 13.5 µM (inactive) | 13.7 µM (inactive) | 18.5 µM (inactive) | 12.9 µM (inactive) | 1.06 µM (active) | 16 µM (inactive) | 14.4 µM (inactive) | 15 µM (inactive) | 16.5 µM (inactive) | 15.3 µM (inactive) | 11.4 | 11.9 µM (inactive) | 11.5 µM (inactive) | 10.7 µM (inactive)
8 | Cc1nc(C)c(N2CCN(S(N)(=O)=O)CC2)c(O)n1 | > 100 µM (inactive) | > 100 µM (inactive) | > 100 µM (inactive) | > 100 µM (inactive) | > 100 µM (inactive) | > 100 µM (inactive) | 0.101 µM (active) | > 100 µM (inactive) | > 100 µM (inactive) | > 100 µM (inactive) | > 100 µM (inactive) | > 100 µM (inactive) | > 100 µM (inactive) | > 100 µM (inactive) | > 100 µM (inactive) | > 100 | > 100 µM (inactive) | > 100 µM (inactive) | > 100 µM (inactive)
